Results from patent publication US20220217972A1, “Methods for cryopreservation of sub-millimeter and millimeter scale biological materials” (Regents of the University of Minnesota, priority 2021, published 2022).

What was measured:
[1] = test system: Drosophila melanogaster embryos; test: Post cryopreservation survival (hatch rate and adult rate) of embryos; type: in vivo; details: strain M2; for post cryopreservation survival: replacing sorbitol as sugar in dehydration CPA
Method: Step 1. Embryo collection and staging. On day 1, 700-1200 flies at the age of 1-4 days old were used to collect embryos at room temperature. Usually 4 bottles of flies were used, 8 or more bottles were used if needed. Flies were placed in an empty Drosophila bottle covered with a mesh cloth as a cap (FIG. 2A). Embryos were collected in a 1 hour period on a grape juice plate smeared with yeast paste. The first hour collection served as an egg clean-up procedure for the female flies and were abandoned. Disturbance of flies was minimized during embryo collection. Grape juice plates with collected embryos were labeled with the end time point of collection, for instance, 3 pm was used to label the collection from 2 pm to 3 pm. Embryos were placed in a temperature incubator at 20.1±0.05° C. (Heratherm purchased from Thermo Scientific) until reaching the desired stage for cryopreservation. 20° C. was selected so that optimal embryo age for cryopreservation will be achieved during a normal work hour on the following day. In this work, embryo collection occurred in the afternoon and usually 2-4 collections were performed.
Step 2. Dechorionation and permeabilization. On day 2, embryos were washed off from the grape juice plate into a nylon mesh basket and dechorionated in 50% bleach for 2-4 minutes. After rinsing with running tap water for 1-2 minutes to remove excess bleach, embryos along with the mesh basket were briefly blotted on paper towel and placed in the cryobuffer (20 mM NaCl, 2.7 mM KCl, 10 mM Na2HPO4, 1.8 mM KH2PO4, 4 mM MgCl2, 13 mM MgSO4, 60 mM Glycine, 60 mM Glutamic acid and 5 mM Malic acid, pH6.8, sterilized by filtration) in a 35 mm petri dish. Embryos were examined under a dissecting microscope to confirm the removal of chorions. In addition, the gut morphology was evaluated to verify the embryo stage (FIG. 2B).
Before permeabilization, ˜4 ml isopropanol, mixture of D-limonene and heptane (4:1 v/v), and heptane alone were added to three separate 35 mm glass petri dishes in a fume hood. […]
Step 3. […] The percentage of embryos that shrunk was recorded. […]

[2] = test system: Drosophila melanogaster embryos; details: permeable CPAs compared under the same weight concentration; strain M2
Method: (§1) CPA loading and dehydration. Right after permeabilization, a brush was used to break up clumps into individual embryos floating as a monolayer with minimal overlap (FIG. 2B). […] The embryos should remain floating in order to maintain access to oxygen. After 3 min, “wrinkles” on the embryo surface were observed under a dissecting microscope, indicating volumetric shrinkage (i.e., losing water) in response to higher external osmolarity (FIG. 2C). The percentage of embryos that shrunk was recorded. The 13 weight percent EG petri dish was then placed in a humid chamber. At 25 min, embryos were inspected under a dissecting microscope to confirm that they swelled back to their original shape, indicating EG had entered the embryos. The percentage of embryos that swelled back was recorded.
Next, the mesh basket was blotted and placed in 39 weight percent EG+9 weight percent sorbitol solution prepared in cryobuffer on ice (i.e., ˜4° C.) for 9 min This step dehydrates the embryos (i.e., water loss) thereby elevating the intra-embryonic EG concentration to favor vitrification and avoidance of devitrification during the rewarming processes. In general, 5-6 ml dehydration CPA was used in a 35 mm petri dish.
At this point, intra-embryonic CPA concentration was elevated through dehydration by placing the embryos in a high concentration CPA (i.e., ˜39 weight percent) at 4° C. […]

[3] = test system: Drosophila melanogaster embryos; details: 13 weight percent EG in cryobuffer; shrink at 3 min, swelled back at 25 min; correct stage, properly permeabilized
Method: as §1

SMILES | post cryopreservation survival [1] | CPA toxicity (post dehydration survival) [2] | survival post cryopreservation ([1]; permeable CPAs compared under the same weight concentration) | embryos that shrink and swell [3] [%]
OC[C@H]1O[C@H](O[C@H]2O[C@H](CO)[C@@H](O)[C@H](O)[C@H]2O)[C@H](O)[C@@H](O)[C@@H]1O [trehalose] | did not affect post cryopreservation survival | – | – | –
OCCO [EG, ethylene glycol] | – | least CPA toxicity | highest survival post cryopreservation | > 90
OC[C@H]1O[C@@](CO)(O[C@H]2O[C@H](CO)[C@@H](O)[C@H](O)[C@H]2O)[C@@H](O)[C@@H]1O [sucrose] | did not affect post cryopreservation survival | – | – | –
C[S+](C)[O-] [DMSO, dimethyl sulfoxide] | – | highest CPA toxicity | – | –
